Tests used:
SF268 (CNS) cells = assay: Sulforhodamine B (SRB) assay, SF268; type: cell-based; details: Homo sapiens
Experimental: (§1) Sulforhodamine B (SRB) assays were performed according to standard National Cancer Institute Guidelines. Briefly, human tumor cells from different cancer panels were seeded into 96 well plates in […] (plating densities ranging from 5-40,000 cells/well depending on the doubling time of individual cell lines) in serum-containing media for twenty-four hours prior to the addition of the compounds to be assayed. After 24 hours, one plate of each cell line was fixed in situ with trichloroacetic acid (TCA). The fixed slides were used to determine the cell population for each cell line at the time of drug addition (Tz). Each compound to be tested was solubilized in dimethyl sulfoxide (DMSO) and the desired concentration was then added to the medium and diluted serially 1:10 to provide a total of five or ten drug concentrations plus control (in a final volume of 200 μL). The starting dose before any dilution was 100 uM for all compounds.
(§2) Following drug addition, each culture was incubated for forty-eight hours. The assay was terminated with the addition of cold TCA. The supernatant was discarded, and the plates were washed with tap water and air dried. SRB solution was then added to each well. After staining, the bound stain was solubilized and the absorbance was read on an automated plate reader at a wavelength of 515 nm.
(§3) Using the absorbance measurements [time zero, (Tz), control growth, (C), and test growth in the presence of drug at the ten concentration levels (Ti)], the percentage growth was calculated at each of the drug concentrations levels. Percentage growth inhibition was calculated as:
(§4) [(Ti−Tz)/(C−Tz)]×100 for concentrations for which Ti>/=Tz
(§5) [(Ti−Tz)/Tz]×100 for concentrations for which Ti<Tz.
(§6) Three dose response parameters were calculated for each experimental agent. Growth inhibition of 50% (GI50) was calculated from [(Ti−Tz)/(C−Tz)]×100=50, which was the drug concentration resulting in a 50% reduction in the net protein increase (as measured by SRB staining) in control cells during the drug. The drug concentration resulting in total growth inhibition (TGI) was calculated from Ti=Tz. The LC50 (concentration of drug resulting in a 50% reduction in the measured protein at the end of the drug treatment as compared to that at the beginning) indicating a net loss of cells following treatment was calculated from [(Ti−Tz)/Tz]×100=−50.
(§7) Values were calculated for each of these three parameters when the level of activity was reached; however, if the effect was not reached or was exceeded, the value for that parameter was expressed as greater or less than the maximum or minimum concentration tested.

[1] = system: 7 different cell lines (lung, ovarian, prostate, CNS, breast, colon); assay: SRB assays across 7 cell lines; type: cell-based, human
Experimental: as §1, §2, §3, §4, §5, §6, §7
SRB provides a colorimetric measure of a compound's anti-cancer activity. SRB assays were performed with compounds of the invention in 7 different cell lines, which represent six different tumor panels (lung, ovarian, prostate, CNS, breast, colon).

MCF7 (Breast) cells = assay: Sulforhodamine B (SRB) assay, MCF7; type: cell-based, human
Experimental: as §1, §2, §3, §4, §5, §6, §7

HCT116 (Colon) cells = assay: Sulforhodamine B (SRB) assay, HCT116; type: cell-based, human
Experimental: as §1, §2, §3, §4, §5, §6, §7

[2] = system: NCI-ADR-RES (Ovarian) cells; assay: Sulforhodamine B (SRB) assay, NCI-ADR-RES (multidrug resistant); type: cell-based, human; details: 48 h
Experimental: as §1, §2, §3, §4, §5, §6, §7

## C[C@]12CCC(=NOC3CCNC3)CC1CCC1C2CC[C@]2(C)C(=O)C(F)CC12 (stereo partly drawn) [Compound 2, (5S,10S,13S,16R)-16a-fluoro-10,13-dimethyl-3-((S)-pyrrolidin-3-yloxyimino)-tetradecahydro-2H-cyclopenta[a]phenanthren-17(14H)-one]
SF268 (CNS) cells; SF-268, 48 h, read-out: LC50
  CC50: 112 nM
SF268 (CNS) cells; SF-268, SF268 CNS, SRB, 48 h
  GI50: 3 nM
  IC (TGI): 43 nM
[1]; Homo sapiens, read-out: LC50 values
  CC50: < 1000 nM
[1]; Homo sapiens, SRB, average over cell lines
  GI50: < 1000 nM
[1]; cell lines representative of lung, breast, CNS, prostate, ovarian, colon and renal neoplasias
  viability and/or cell proliferation of cell lines: reduced the viability and/or cell proliferation
MCF7 (Breast) cells; Homo sapiens, MCF7, 48 h, read-out: LC50
  CC50: 9780 nM
MCF7 (Breast) cells; Homo sapiens, MCF7 Breast, SRB, 48 h
  GI50: 21 nM
MCF7 (Breast) cells; MCF7 Breast, SRB, 48 h
  TGI: 478 nM
HCT116 (Colon) cells; HCT116 Colon, SRB, 48 h
  TGI: 156 nM
HCT116 (Colon) cells; Homo sapiens, HCT-116, 48 h, read-out: LC50
  CC50: 998 nM
HCT116 (Colon) cells; Homo sapiens, HCT-116, HCT116 Colon, SRB, 48 h
  GI50: 8 nM
[2]; Homo sapiens, NCI/ADR-RES, read-out: LC50
  CC50: 598 nM
[2]; Homo sapiens, NCI-ADR-RES Ovarian, SRB
  GI50: 29 nM
[2]; NCI-ADR-RES Ovarian, SRB
  TGI: 94 nM

Source: patent US20130303500A1, “COMPOUNDS AND METHODS FOR TREATING NEOPLASIA” (Medexis S.A., priority 2010, published 2013)
